Experimental data taken from ChEMBL document CHEMBL1201862, “PubChem BioAssay data set” (2004).
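Step 1: Grow cells in 96-well plates. Step 2: Expose to compound for 48 hours at 5 concentrations. Step 3: Interpolate endpoints linearly; if unreached, use highest concentration. GI50 = concentration required for 50% inhibition of growth.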 Active and inactive are the calls of the source. No stated cut-off is given here; in the data, active = GI50 up to about 1.1 µM and inactive = higher.

How the values were obtained:
Test in all cases: NCI tumour cell line growth inhibition, 48 h
A549 = tested on: A549
EKVX = tested on: EKVX
SK-OV-3 = tested on: SK-OV-3
HOP-62 = tested on: HOP-62
MOLT-4 = tested on: MOLT-4
HCT-116 = tested on: HCT-116
TK-10 = tested on: TK-10
NCI-H23 = tested on: NCI-H23
SF-539 = tested on: SF-539
NCI/ADR-RES = tested on: NCI/ADR-RES
MDA-MB-231 = tested on: MDA-MB-231
OVCAR-5 = tested on: OVCAR-5
COLO 205 = tested on: COLO 205
ACHN = tested on: ACHN
BT-549 = tested on: BT-549
M14 = tested on: M14
OVCAR-4 = tested on: OVCAR-4
UO-31 = tested on: UO-31
SNB-19 = tested on: SNB-19
T47D = tested on: T47D
RPMI-8226 = tested on: RPMI-8226
HT-29 = tested on: HT-29
U-251 = tested on: U-251
786-0 = tested on: 786-0
HCT-15 = tested on: HCT-15
MCF7 = tested on: MCF7
MDA-MB-435 = tested on: MDA-MB-435
Hs-578T = tested on: Hs-578T
SK-MEL-28 = tested on: SK-MEL-28
SNB-75 = tested on: SNB-75
HOP-92 = tested on: HOP-92
MDA-N = tested on: MDA-N
A498 = tested on: A498
IGROV-1 = tested on: IGROV-1
SK-MEL-2 = tested on: SK-MEL-2
HCC 2998 = tested on: HCC 2998
KM12 = tested on: KM12
SN12C = tested on: SN12C
SW-620 = tested on: SW-620
OVCAR-8 = tested on: OVCAR-8
DU-145 = tested on: DU-145
NCI-H460 = tested on: NCI-H460
UACC-257 = tested on: UACC-257
UACC-62 = tested on: UACC-62
SF-295 = tested on: SF-295
NCI-H522 = tested on: NCI-H522
Malme-3M = tested on: Malme-3M
K562 = tested on: K562
HL-60 = tested on: HL-60
SK-MEL-5 = tested on: SK-MEL-5
RXF 393 = tested on: RXF 393
CCRF-CEM = tested on: CCRF-CEM
SF-268 = tested on: SF-268
OVCAR-3 = tested on: OVCAR-3
SR = tested on: SR
NCI-H226 = tested on: NCI-H226
LOX IMVI = tested on: LOX IMVI
PC-3 = tested on: PC-3
CAKI-1 = tested on: CAKI-1

SMILES: Oc1cc(/C=C/c2ccccc2)nc2cc3c(cc12)OCO3
- GI50 (A549): 4.95 µM (inactive)
- GI50 (EKVX): 6.12 µM (inactive)
- GI50 (SK-OV-3): 4.63 µM (inactive)
- GI50 (HOP-62): 3.47 µM (inactive)
- GI50 (MOLT-4): 2.71 µM (inactive)
- GI50 (HCT-116): 3.19 µM (inactive)
- GI50 (TK-10): 10.7 µM (inactive)
- GI50 (NCI-H23): 3.26 µM (inactive)
- GI50 (SF-539): 2.08 µM (inactive)
- GI50 (NCI/ADR-RES): 2.04 µM (inactive)
- GI50 (MDA-MB-231): 2.79 µM (inactive)
- GI50 (OVCAR-5): 3.54 µM (inactive)
- GI50 (COLO 205): 2.38 µM (inactive)
- GI50 (ACHN): 10.9 µM (inactive)
- GI50 (BT-549): 5.73 µM (inactive)
- GI50 (M14): 5.25 µM (inactive)
- GI50 (OVCAR-4): 14.7 µM (inactive)
- GI50 (UO-31): 6.01 µM (inactive)
- GI50 (SNB-19): 3.78 µM (inactive)
- GI50 (T47D): 3.28 µM (inactive)
- GI50 (RPMI-8226): 0.724 µM (active)
- GI50 (HT-29): 2.2 µM (inactive)
- GI50 (U-251): 2.52 µM (inactive)
- GI50 (786-0): 3.32 µM (inactive)
- GI50 (HCT-15): 3.01 µM
- GI50 (MCF7): 4.85 µM (inactive)
- GI50 (MDA-MB-435): 1.98 µM (inactive)
- GI50 (Hs-578T): 3.78 µM (inactive)
- GI50 (SK-MEL-28): 8.65 µM (inactive)
- GI50 (SNB-75): 6.93 µM (inactive)
- GI50 (HOP-92): 2.08 µM (inactive)
- GI50 (MDA-N): 2.03 µM (inactive)
- GI50 (A498): 4.2 µM (inactive)
- GI50 (IGROV-1): 4.56 µM (inactive)
- GI50 (SK-MEL-2): 3.72 µM (inactive)
- GI50 (HCC 2998): 2.9 µM (inactive)
- GI50 (KM12): 3.99 µM (inactive)
- GI50 (SN12C): 6.04 µM (inactive)
- GI50 (SW-620): 6.37 µM (inactive)
- GI50 (OVCAR-8): 5.53 µM (inactive)
- GI50 (DU-145): 7.06 µM (inactive)
- GI50 (NCI-H460): 3.1 µM (inactive)
- GI50 (UACC-257): 22.1 µM (inactive)
- GI50 (UACC-62): 3.19 µM (inactive)

SMILES: CN1CCN(C(=S)N(C(=O)c2ccco2)c2ccccc2)CC1
- GI50 (A549): > 100 µM (inactive)
- GI50 (MOLT-4): > 100 µM (inactive)
- GI50 (TK-10): > 100 µM (inactive)
- GI50 (SF-295): > 100 µM (inactive)
- GI50 (NCI-H23): > 100 µM (inactive)
- GI50 (MDA-MB-231): > 100 µM (inactive)
- GI50 (OVCAR-5): > 100 µM (inactive)
- GI50 (COLO 205): > 100 µM (inactive)
- GI50 (NCI-H522): > 100 µM (inactive)
- GI50 (Malme-3M): > 100 µM (inactive)
- GI50 (ACHN): > 100 µM (inactive)
- GI50 (BT-549): > 100 µM (inactive)
- GI50 (K562): > 100 µM (inactive)
- GI50 (M14): > 100 µM (inactive)
- GI50 (OVCAR-4): > 100 µM (inactive)
- GI50 (HL-60): > 100 µM (inactive)
- GI50 (UO-31): > 100 µM (inactive)
- GI50 (SNB-19): > 100 µM (inactive)
- GI50 (SK-MEL-5): > 100 µM (inactive)
- GI50 (RXF 393): > 100 µM (inactive)
- GI50 (CCRF-CEM): > 100 µM (inactive)
- GI50 (T47D): > 100 µM (inactive)
- GI50 (RPMI-8226): > 100 µM (inactive)
- GI50 (HT-29): > 100 µM (inactive)
- GI50 (U-251): > 100 µM (inactive)
- GI50 (786-0): > 100 µM (inactive)
- GI50 (SF-268): > 100 µM (inactive)
- GI50 (HCT-15): > 100 µM
- GI50 (MCF7): > 100 µM (inactive)
- GI50 (MDA-MB-435): > 100 µM (inactive)
- GI50 (Hs-578T): > 100 µM (inactive)
- GI50 (SK-MEL-28): > 100 µM (inactive)
- GI50 (SNB-75): > 100 µM (inactive)
- GI50 (HOP-92): > 100 µM (inactive)
- GI50 (MDA-N): > 100 µM (inactive)
- GI50 (OVCAR-3): > 100 µM (inactive)
- GI50 (SR): > 100 µM (inactive)
- GI50 (IGROV-1): > 100 µM (inactive)
- GI50 (NCI-H226): > 100 µM (inactive)
- GI50 (SK-MEL-2): > 100 µM (inactive)
- GI50 (HCC 2998): > 100 µM (inactive)
- GI50 (KM12): > 100 µM (inactive)
- GI50 (SN12C): > 100 µM (inactive)
- GI50 (SW-620): > 100 µM (inactive)
- GI50 (OVCAR-8): > 100 µM (inactive)
- GI50 (DU-145): > 100 µM (inactive)
- GI50 (NCI-H460): > 100 µM (inactive)
- GI50 (UACC-257): > 100 µM (inactive)
- GI50 (UACC-62): > 100 µM (inactive)
- GI50 (LOX IMVI): > 100 µM (inactive)

SMILES: C[C@H]1CC[C@@]2(NC1)O[C@H]1C[C@H]3[C@@H]4CC[C@H]5C[C@@H](O)CC[C@]5(C)[C@H]4CC[C@]3(C)[C@H]1[C@@H]2C
- GI50 (A549): > 100 µM (inactive)
- GI50 (EKVX): > 100 µM (inactive)
- GI50 (SK-OV-3): > 100 µM (inactive)
- GI50 (HOP-62): 18.7 µM (inactive)
- GI50 (MOLT-4): > 100 µM (inactive)
- GI50 (HCT-116): 54.8 µM (inactive)
- GI50 (TK-10): > 100 µM (inactive)
- GI50 (SF-295): 55.7 µM (inactive)
- GI50 (NCI-H23): 85.5 µM (inactive)
- GI50 (SF-539): > 100 µM (inactive)
- GI50 (NCI/ADR-RES): 49.2 µM (inactive)
- GI50 (MDA-MB-231): 32.2 µM (inactive)
- GI50 (OVCAR-5): > 100 µM (inactive)
- GI50 (PC-3): > 100 µM (inactive)
- GI50 (COLO 205): > 100 µM (inactive)
- GI50 (NCI-H522): 59.4 µM (inactive)
- GI50 (ACHN): 39.5 µM (inactive)
- GI50 (BT-549): > 100 µM (inactive)
- GI50 (K562): > 100 µM (inactive)
- GI50 (M14): > 100 µM (inactive)
- GI50 (OVCAR-4): 35.6 µM (inactive)
- GI50 (HL-60): 51.1 µM (inactive)
- GI50 (UO-31): > 100 µM (inactive)
- GI50 (SNB-19): > 100 µM (inactive)
- GI50 (SK-MEL-5): 90.4 µM (inactive)
- GI50 (CCRF-CEM): > 100 µM (inactive)
- GI50 (T47D): > 100 µM (inactive)
- GI50 (RPMI-8226): > 100 µM (inactive)
- GI50 (HT-29): 47.9 µM (inactive)
- GI50 (786-0): 39.9 µM (inactive)
- GI50 (SF-268): 74.8 µM (inactive)
- GI50 (HCT-15): 42.7 µM
- GI50 (MCF7): > 100 µM (inactive)
- GI50 (CAKI-1): > 100 µM (inactive)
- GI50 (Hs-578T): 47 µM (inactive)
- GI50 (SNB-75): 57.5 µM (inactive)
- GI50 (HOP-92): 52.6 µM (inactive)
- GI50 (MDA-N): > 100 µM (inactive)
- GI50 (A498): 77.8 µM (inactive)
- GI50 (OVCAR-3): 54.2 µM (inactive)
- GI50 (SR): 22.9 µM (inactive)
- GI50 (IGROV-1): 71.6 µM (inactive)
- GI50 (NCI-H226): > 100 µM (inactive)
- GI50 (SK-MEL-2): > 100 µM (inactive)
- GI50 (HCC 2998): > 100 µM (inactive)
- GI50 (KM12): 71.8 µM (inactive)
- GI50 (SN12C): > 100 µM (inactive)
- GI50 (OVCAR-8): 38.8 µM (inactive)
- GI50 (DU-145): > 100 µM (inactive)
- GI50 (NCI-H460): 33.4 µM (inactive)
- GI50 (UACC-257): > 100 µM (inactive)
- GI50 (UACC-62): > 100 µM (inactive)
- GI50 (LOX IMVI): 45.3 µM (inactive)
